According to patent US20170246144A1, “METHOD OF PREVENTING OR TREATING SPINOCEREBELLAR ATAXIA BY ADMINISTRATING SILIBININ” (National Taiwan Normal University, priority 2016, published 2017):

What was measured:
Type in all cases: cell-based, Human
[1] = test system: SH-SY5Y cells; assay: JC-1 flow cytometry of mitochondria membrane potential (MMP)
Experimental: FIGS. 7A and 7B show the effects of SB on mitochondria membrane potential (MMP) in SH-SY5Y cells treated with MSG measured by JC-1 staining with a flow cytometry, wherein the control group (Ctrl) was untreated SH-SY5Y cells or the cells were treated with 100 mM MSG, 100 mM MSG+15 μM SB, 100 mM MSG+10 μM MK801 (MK) or 5 μM CCCP (disruptor of electron transport chain) for 12 hours. […] The results were shown as mean±SEM, n=3, *p<0.05, comparing to the MSG treatment group.
In the present embodiment, flow cytometry analysis was used to investigate whether silibinin can prevent the reduction of mitochondria membrane potential induced by glutamate in SH-SY5Y cells.
SH-SY5Y cells were seeded in 6 centimeter dish (1×10^6 cells/plate) for 24 hours, and then were pre-treated with 15 μM silibinin or 10 μM MK-801 for 1 hour followed by the treatment of 100 mM MSG for 12 hours. 5 μM carbonyl cyanide m-chlorophenylhydrazone (CCCP) was added to the positive control group to induce the depolarization of mitochondria membrane potential.
The treated cells were washed, centrifuged and collected, followed by PBS wash and JC-1 dye staining for 30 minutes. The stained cells were re-suspended using phosphate buffer solution and analyzed by a flow cytometry to obtain a 2-dimensional scatter plot. 10,000 cells were recorded for each experiment.

[2] = test system: SH-SY5Y cells; assay: Annexin V-FITC/PI flow cytometry, apoptosis induced by MSG; settings: 10 μM, 100 mM MSG, 24 hours
Experimental: 1×10^6 SH-SY5Y cells were treated with 100 mM MSG and 15 μM SB or 10 μM MK801 (MK) for 24 hours. Cells were stained with Annexin-V/PI and the apoptosis was measured with a flow cytometry.
In order to detect the effects of silibinin in inhibiting the apoptosis induced by glutamate in SH-SY5Y cells. The cells were measured by flow cytometry using Annexin V-FITC/propidium iodide (PI) double-labeling method.
SH-SY5Y cells were seeded in dish and were treated with 100 mM MSG in combination of 15 μM silibinin or 10 μM MK801 for 24 hours. The cells were then trypsinized and collected by centrifugation at 2,000 rpm for […] followed by double-staining with Annexin V-FITC and PI. Stained cells were analyzed with a flow cytometry (FACS Sorter, Becton, Dickinson and Company). 10,000 cells were recorded in each experiment.

[3] = test system: SH-SY5Y cells; assay: Chemiluminescence (luminol) analysis of ROS induced by MSG
Experimental: FIG. 6A: The ROS productions in 1×10^6 SH-SY5Y cells were measured by chemiluminescence (CL) analysis and luminol measurement, wherein the control group (Ctrl) was untreated SH-SY5Y cells or the cells were treated with 100 mM MSG, 100 mM MSG+15 μM SB or 100 mM MSG+10 μM MK801 (MK) for 24 hours.
It is known that the cyto-toxicity induced by glutamate is associated with mitochondria dysfunction and the increased production of ROS in neuron. In this embodiment, chemiluminescence analysis was performed to measure the level of ROS in order to understand whether silibinin can inhibit the accumulation of ROS associated with glutamatergic excitotoxicity. […] The emission spectrum was blue light which can be monitored by chemiluminescence detector.
SH-SY5Y cells were seeded in dish (1×10^6 cells/plate) for 24 hours, and then were pre-treated with 15 μM silibinin or 10 μM MK-801 for 1 hour followed by the treatment of 100 mM glutamate for 24 hours. The cells were then washed and suspended in 60 μL RIPA on ice bath followed by stirring and centrifugation at 13,000 rpm for […] at 4° C. The obtained protein sample (200 μL, 20 μg) was mixed with 0.5 mL of 0.2 mM luminol (Sigma). After 5 minutes, chemiluminescence analysis system (CLD-110, Tohoku Electronic Inc. Co. Japan) was performed to determine its chemiluminescence.

| Structure (SMILES) | MMP retained ([1]; 5 μM CCCP, positive control, no MSG) [%] | apoptosis (apoptotic cells) [2] [%] | MMP compared to Ctrl ([1]; 10 μM + 100 mM MSG) [%] | extracellular ROS ([3]; 10 μM, 100 mM MSG, 24 hours) | inhibition at 10 µM ([3]; Homo sapiens, SH-SY5Y, 24 h, read-out: inhibition of intracellular ROS) [%] |
| --- | --- | --- | --- | --- | --- |
| N#CC(C#N)=NNc1cccc(Cl)c1 [CCCP, carbonyl cyanide m-chlorophenylhydrazone] | 18±10 |  |  |  |  |
| C[C@]12N[C@H](Cc3ccccc31)c1ccccc12 [MK801] |  | 9.73 | 90±5 | unchanged | 80 |
